In one assay the target is T1, human B1R receptor (Homo sapiens, UniProt P46663).
T1 construct: host or cells: CHO K1 cells (Chinese hamster ovary), stably transfected
T1 sequence (P46663 1-353): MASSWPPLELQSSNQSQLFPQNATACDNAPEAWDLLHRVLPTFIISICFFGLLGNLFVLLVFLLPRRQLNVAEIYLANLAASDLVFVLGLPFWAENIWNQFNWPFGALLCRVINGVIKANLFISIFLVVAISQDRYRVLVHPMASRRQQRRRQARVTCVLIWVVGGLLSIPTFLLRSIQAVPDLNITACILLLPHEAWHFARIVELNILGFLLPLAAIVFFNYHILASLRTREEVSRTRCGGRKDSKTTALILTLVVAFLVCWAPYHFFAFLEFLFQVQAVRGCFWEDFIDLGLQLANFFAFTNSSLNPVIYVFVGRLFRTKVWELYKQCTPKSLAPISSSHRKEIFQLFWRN
Briefly: Functional study on the bradykinin receptor 1 (B1R), FLIPR Ca2+ assay, hB1R cells. It counts as cell-based. The settings on record: agonist Lys-Des-Arg9-bradykinin 0.5 nM, % inhibition compared with the maximum achievable inhibition; for inhibition at 10 µM: CHO-K1, test substance 10 μM, read-out: B1R Antagonism, human [10 μM] % Inhibition. A digest of the protocol:
(§1)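 FLIPR Ca2+ assay in recombinant CHO K1 cells (human or rat B1R), Fluo-4 dye; 10 μM compound, 10 min, then EC-level agonist per species (0.5 nM Lys-Des-Arg9-BK human / 100 nM Des-Arg9-BK rat). Output: % inhibition vs maximum.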

The next assay addresses T2, B1R receptor of the rat (Rattus norvegicus, UniProt P97583).
T2 construct: host or cells: CHO K1 cells (Chinese hamster ovary), stably transfected
T2 sequence (P97583 1-337): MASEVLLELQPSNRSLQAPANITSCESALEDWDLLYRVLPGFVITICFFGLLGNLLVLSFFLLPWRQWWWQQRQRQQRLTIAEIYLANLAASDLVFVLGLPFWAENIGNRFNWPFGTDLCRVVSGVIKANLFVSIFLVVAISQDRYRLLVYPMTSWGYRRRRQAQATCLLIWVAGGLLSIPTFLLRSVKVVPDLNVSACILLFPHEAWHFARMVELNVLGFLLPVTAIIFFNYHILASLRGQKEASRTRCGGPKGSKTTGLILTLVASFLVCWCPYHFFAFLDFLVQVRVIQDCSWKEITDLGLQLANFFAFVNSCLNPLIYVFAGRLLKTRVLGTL
Briefly: Functional study on the bradykinin receptor 1 (B1R), FLIPR Ca2+ assay, rB1R cells. It counts as cell-based. The settings on record: agonist Des-Arg9-bradykinin 100 nM, % inhibition compared with the maximum achievable inhibition; for inhibition at 10 µM: CHO-K1, test substance 10 μM, read-out: B1R Antagonism, rat [10 μM] % Inhibition. A digest of the protocol: as §1

The inhibition is the relative decrease from the control value, in per cent.

Structures are written as SMILES. Counter-ions that a name gives are not always drawn.

For the molecule `COc1cc(C)c(S(=O)(=O)N2CCCC2COCC(=O)N2CCN(Cc3cccc(C#N)c3)CC2)c(C)c1` (centres unmarked) [Example 93, 3-((4-(2-((1-(4-methoxy-2,6-dimethylphenylsulfonyl)pyrrolidin-2-yl)methoxy)acetyl)-piperazin-1-yl)methyl)benzonitrile hydrochloride], the inhibition at 10 µM on human B1R receptor was 106%; at B1R receptor of the rat it was 99.1%.
Turning to `O=C(COCC1CCCCN1S(=O)(=O)c1c(Cl)cc(Cl)cc1Cl)N1CCC(c2cccnc2)C1` (centres unmarked) [Example 389], the “B1R Antagonism, human [10 μM] % Inhibition” value on human B1R receptor (test substance 10 μM, hB1R CHO K1 cells) was found to be 100.51%. The “B1R Antagonism, rat [10 μM] % Inhibition” value on B1R receptor of the rat (test substance 10 μM, rB1R CHO K1 cells) is listed as 100.49%.
Consider `COc1cc(C)c(S(=O)(=O)N2CCCCC2COCC(=O)N2CCN(c3ncccc3C#N)CC2)c(C)c1` (centres unmarked) [Example 513, 2-(4-(2-((1-(4-methoxy-2,6-dimethylphenylsulfonyl)piperidin-2-yl)methoxy)acetyl)piperazin-1-yl)nicotinonitrile], for which the inhibition at 10 µM at human B1R receptor was determined as 73.5%; at B1R receptor of the rat it was 101%.
For `COc1cc(C)c(S(=O)(=O)N2CCCC2COCC(=O)N2CCN(c3ccc(C(F)(F)F)cn3)CC2)c(C)c1` (centres unmarked) [Example 468, 2-((1-(4-methoxy-2,6-dimethylphenylsulfonyl)pyrrolidin-2-yl)methoxy)-1-(4-(5-(trifluoromethyl)pyridin-2-yl)piperazin-1-yl)ethanone], the inhibition at 10 µM stood at 84.5% on human B1R receptor and 101% at B1R receptor of the rat.
With `COc1cc(C)c(S(=O)(=O)N2CCCCC2COCC(=O)Nc2cccc(N3CCCCC3)c2)c(C)c1` (centres unmarked) [Example 429, 2-((1-(4-methoxy-2,6-dimethylphenylsulfonyl)piperidin-2-yl)methoxy)-N-(3-(piperidin-1-yl)phenyl)acetamide], the inhibition at 10 µM on human B1R receptor came out at 14.3%; at B1R receptor of the rat, 99.5%.
The corresponding values for `O=C(COCC1CCCCN1S(=O)(=O)c1c(Cl)cc(Cl)cc1Cl)NCc1ccc(N2CCOCC2)cc1` (centres unmarked) [Example 581, N-(4-morpholinobenzyl)-2-((1-(2,4,6-trichlorophenylsulfonyl)piperidin-2-yl)methoxy)acetamide] are 27.5% and 76.3%.
The corresponding values for `Cc1cc(S(=O)(=O)N2CCCCC2COCC(=O)N2CCN(C3CCN(C)CC3)CC2)c(C)s1` (centres unmarked) [Example 172, 2-((1-(2,5-dimethylthiophen-3-ylsulfonyl)piperidin-2-yl)methoxy)-1-(4-(1-methylpiperidin-4-yl)piperazin-1-yl)ethanone] are 101% and 85.2%.
On to `Cc1cc(C)c(S(=O)(=O)N2CCCCC2COCC(=O)N2CCC(c3nc4cc(C)ccc4[nH]3)CC2)c(C)c1` (centres unmarked) [Example 222, 2-((1-(mesitylsulfonyl)piperidin-2-yl)methoxy)-1-(4-(5-methyl-1H-benzo[d]imidazol-2-yl)piperidin-1-yl)ethanone], for which the inhibition at 10 µM was 7.55% at human B1R receptor and 114% on B1R receptor of the rat.
On the same counts, the results for `Cc1cc(C)c(S(=O)(=O)N2Cc3ccccc3CC2COCC(=O)NCc2cccc(N3CCN(C)CC3)c2)c(C)c1` (centres unmarked) [Example 33, N-[3-(4-methyl-piperazin-1-yl)-benzyl]-2-[2-(2,4,6-trimethyl-phenylsulfonyl)-1,2,3,4-tetrahydro-isoquinolin-3-ylmethoxy]-acetamide] are 82.7% and 47.7%.
On the same counts, the results for `COc1cc(C)c(S(=O)(=O)N2Cc3ccccc3CC2COCC(=O)N2CCC(CCN3CCCCC3)CC2)c(C)c1C` (centres unmarked) [Example 276, 2-((2-(4-methoxy-2,3,6-trimethylphenylsulfonyl)-1,2,3,4-tetrahydroisoquinolin-3-yl)methoxy)-1-(4-(2-(piperidin-1-yl)ethyl)piperidin-1-yl)ethanone] are 98.9% and 94.2%.
`CCn1nccc1NC(=O)COCC1CCCCN1S(=O)(=O)c1c(C)cc(OC)cc1C` (centres unmarked) [Example 257, N-(1-ethyl-1H-pyrazol-5-yl)-2-((1-(4-methoxy-2,6-dimethylphenylsulfonyl)piperidin-2-yl)methoxy)acetamide]: the inhibition at 10 µM on human B1R receptor was 34.3%; on B1R receptor of the rat, 99.9%.
As for `O=C(COCC1CCCCN1S(=O)(=O)c1ccc(Cl)c(Cl)c1)N1CCN(CCN2CCCCC2)CC1` (centres unmarked) [Example 42, 2-((1-(3,4-dichlorophenylsulfonyl)piperidin-2-yl)methoxy)-1-(4-(2-(piperidin-1-yl)-ethyl)piperazin-1-yl)ethanone], the values for the inhibition at 10 µM at human B1R receptor and on B1R receptor of the rat were 70.6% and 57.9%, respectively.
The corresponding values for `COc1cc(C)c(S(=O)(=O)N2Cc3ccccc3CC2COCC(=O)N2CCCCC2Cc2cccc(C)n2)c(C)c1C` (centres unmarked) [Example 277, 2-((2-(4-methoxy-2,3,6-trimethylphenylsulfonyl)-1,2,3,4-tetrahydroisoquinolin-3-yl)methoxy)-1-(2-((6-methylpyridin-2-yl)methyl)piperidin-1-yl)ethanone] are 85.5% and 81.6%.
As to `COc1cc(C)c(S(=O)(=O)N2CCCC[C@H]2COCC(=O)N2CCN(C3CCN(C)CC3)CC2)c(C)c1` [Example 167, (S)-2-((1-(4-methoxy-2,6-dimethylphenylsulfonyl)piperidin-2-yl)methoxy)-1-(4-(1-methylpiperidin-4-yl)piperazin-1-yl)ethanone], the inhibition at 10 µM on human B1R receptor came to 102%; at B1R receptor of the rat it was 101%.
Turning to `COc1cccc(N2CCN(C(=O)COCC3CCCCN3S(=O)(=O)c3ccc(Cl)c(Cl)c3)CC2)c1` (centres unmarked) [Example 53, 2-[1-(3,4-dichloro-phenylsulfonyl)-piperidin-2-ylmethoxy]-1-[4-(3-methoxy-phenyl)-piperazin-1-yl]-ethanone], the figures for the inhibition at 10 µM on human B1R receptor and at B1R receptor of the rat were 64.8% and 0%, respectively.
The corresponding values for `COc1cc(C)c(S(=O)(=O)N2CCCCC2COCC(=O)Nc2ccccc2N2CCN(C)CC2)c(C)c1` (centres unmarked) [Example 431, 2-((1-(4-methoxy-2,6-dimethylphenylsulfonyl)piperidin-2-yl)methoxy)-N-(2-(4-methylpiperazin-1-yl)phenyl)acetamide] are 28.4% and 96.2%.
As to `COCCN1CCN(C(=O)COCC2CCCCN2S(=O)(=O)c2ccc(Cl)c(Cl)c2)CC1` (centres unmarked) [Example 46, 2-[1-(3,4-dichloro-phenylsulfonyl)-piperidin-2-ylmethoxy]-1-[4-(2-methoxy-ethyl)-piperazin-1-yl]-ethanone], the results for the inhibition at 10 µM at human B1R receptor and on B1R receptor of the rat were 68.2% and 0%, respectively.
`COc1cc(C)c(S(=O)(=O)N2CCCCC2COCC(=O)NCCn2nccc2C)c(C)c1` (centres unmarked) [Example 416, 2-((1-(4-methoxy-2,6-dimethylphenylsulfonyl)piperidin-2-yl)methoxy)-N-(2-(5-methyl-1H-pyrazol-1-yl)ethyl)acetamide]: the inhibition at 10 µM at human B1R receptor is 50.2%; on B1R receptor of the rat, 101%.
The corresponding values for `CN1CCC(N2CCN(C(=O)COCC3CCCCN3S(=O)(=O)c3ccc(Br)cc3)CC2)CC1` (centres unmarked) [Example 123, 2-((1-(4-bromophenylsulfonyl)piperidin-2-yl)methoxy)-1-(4-(1-methylpiperidin-4-yl)piperazin-1-yl)ethanone] are 43.9% and 79.9%.
On the same counts, the results for `O=C(COCC1CCCCN1S(=O)(=O)c1ccc(Cl)c(Cl)c1)N1CCN(c2ccccc2F)CC1` (centres unmarked) [Example 86, 2-[1-(3,4-dichloro-phenylsulfonyl)-piperidin-2-ylmethoxy]-1-[4-(2-fluoro-phenyl)-piperazin-1-yl]-ethanone] are 43.2% and 0%.
The corresponding values for `O=C(COCC1CCCCN1S(=O)(=O)c1c(Cl)cccc1Cl)N1CCCC1c1cccnc1` (centres unmarked) [Example 497, 2-((1-(2,6-dichlorophenylsulfonyl)piperidin-2-yl)methoxy)-1-(2-(pyridin-3-yl)pyrrolidin-1-yl)ethanone] are 66% and 101%.
With `O=C(COCC1Cc2ccccc2N1S(=O)(=O)c1ccc(Cl)c(Cl)c1)NCC1CCCN(Cc2ccccc2)C1` (centres unmarked) [Example 16, N-(1-benzyl-piperidin-3-ylmethyl)-2-[1-(3,4-dichloro-phenylsulfonyl)-2,3-dihydro-1H-indol-2-ylmethoxy]-acetamide], the results for the inhibition at 10 µM on human B1R receptor and at B1R receptor of the rat were 95.9% and 25.5%, respectively.

Source of the values: US8435978B2, “Substituted sulfonamide compounds” (Gruenenthal GmbH, priority 2006, dated 2013).
